Laboratory results as given in US20150266850A1 (E.I.DU PONT DE NEMOURS AND COMPANY, priority 2012, published 2015).
Marks after values point to notes of the source that are not given here.

Experiments:
Format in all cases: in vivo
[1] = tested on: Erysiphe graminis f. sp. tritici; assay: Test A: wheat powdery mildew, preventive spray on wheat seedlings, visual disease rating; details: 100 = 100% disease control; for pest or weed control at 200 ppm: Blumeria graminis, 192 h
How it was run: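 Preventive test: seedlings inoculated with Erysiphe spores one day after run-off spraying at 200 ppm (or 40/50 ppm) in acetone/water plus surfactant. Kept 8 days at 20° C; visual rating as % disease control versus untreated (100 = full control).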

[2] = tested on: Puccinia recondita f sp. tritici; assay: Test B: wheat leaf rust, preventive spray on wheat seedlings, visual disease rating; details: 100 = 100% disease control; for pest or weed control at 200 ppm: 192 h
How it was run: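 Preventive spray to run-off on seedlings, one day before spore inoculation; 24 h in saturated atmosphere at 20° C, then 7 days in a 20° C growth chamber before visual rating (100 = full control, 0 = none, relative to controls). Standard rate 200 ppm, equal to 800 g/ha, some at 40 or 50 ppm; compounds in acetone/water with 250 ppm surfactant.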

Septoria tritici = assay: Test C: wheat leaf blotch, preventive spray on wheat seedlings, visual disease rating; details: 100 = 100% disease control; for pest or weed control at 200 ppm: Zymoseptoria tritici, 504 h
How it was run: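 Preventive run-off spray on seedlings at 200 ppm (equal to 800 g/ha), some at 40 or 50 ppm, in acetone/water 50/50 plus 250 ppm Trem® 014. Spore inoculation one day later; 24° C. saturated for 48 h, 20° C. chamber 19 days. Disease scored visually as % control relative to controls.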

Septoria nodorum = assay: Test D: wheat glume blotch, preventive spray on wheat seedlings, visual disease rating; details: 100 = 100% disease control; for pest or weed control at 200 ppm: Parastagonospora nodorum, 216 h
How it was run: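 Disease control (0 = none, 100 = full, relative to controls) was scored visually on wheat seedlings 7 days after a 48 h saturated-humidity incubation at 20° C following Septoria nodorum inoculation. Inoculation came one day after a run-off spray at 200 ppm (some 40 or 50 ppm) in acetone/water plus surfactant.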

Botrytis cinerea = assay: Test E: tomato botrytis, preventive spray on tomato seedlings, visual disease rating; details: 100 = 100% disease control; for pest or weed control at 200 ppm: Botrytis cinerea, 120 h
How it was run: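 Preventive test: seedlings inoculated with Botrytis cinerea spore suspension one day after run-off spraying (200 ppm ≈ 800 g/ha; some 40 or 50 ppm) in acetone/water with 250 ppm surfactant. Incubation 48 h at 20°C saturated humidity, then 3 days at 27°C; disease control rated visually (0–100%) relative to controls.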

Compound	Test A disease control rating ([1]; 200 ppm)	Test B disease control rating ([2]; 200 ppm)	Test C disease control rating (Septoria tritici; 200 ppm)	Test D disease control rating (Septoria nodorum; 200 ppm)	Test E disease control rating (Botrytis cinerea; 200 ppm)	pest or weed control at 200 ppm ([1]; 200 ppm)	pest or weed control at 200 ppm ([2]; 200 ppm)	pest or weed control at 200 ppm (Septoria tritici; 200 ppm)	pest or weed control at 200 ppm (Septoria nodorum; 200 ppm)	pest or weed control at 200 ppm (Botrytis cinerea; 200 ppm)	also measured
COC(=O)NCc1cc(-c2ccn(-c3ccc(N)cc3Cl)n2)ccc1C [Cmpd 90]	0%	98%	100%	100%	97%						
COC(=O)NCc1cc(-n2ccc(-c3ccc(OC)cc3O)n2)ccc1C [Cmpd 103]	48%	100%	74%	100%	0%						
COC(=O)NCc1cc(-n2ncc(-c3ccc(OC)cc3C(F)(F)F)n2)ccc1C [Cmpd 104]											Test A disease control rating ([1]; 40 ppm (*)): 98* %; Test B disease control rating ([2]; 40 ppm (*)): 100* %; Test C disease control rating (Septoria tritici; 40 ppm (*)): 91* %; Test D disease control rating (Septoria nodorum; 40 ppm (*)): 100* %; Test E disease control rating (Botrytis cinerea; 40 ppm (*)): 0* %
C#CCOc1cc(Cl)ccc1-c1ccn(-c2ccc(C)c(CNC(=O)OC)c2)n1 [Cmpd 108]	99%	100%	95%	100%	8%						
COC(=O)NCc1cc(-n2ccc(-c3ccc(Br)cc3Br)n2)ccc1C [Cmpd 109]											Test A disease control rating ([1]; 40 ppm (*)): 99* %; Test B disease control rating ([2]; 40 ppm (*)): 100* %; Test C disease control rating (Septoria tritici; 40 ppm (*)): 92* %; Test D disease control rating (Septoria nodorum; 40 ppm (*)): 100* %; Test E disease control rating (Botrytis cinerea; 40 ppm (*)): 0* %
COC(=O)NCc1cc(-n2ccc(-c3ccc([N+](=O)[O-])cc3Cl)n2)ccc1C [Cmpd 110]											Test A disease control rating ([1]; 40 ppm (*)): 72* %; Test B disease control rating ([2]; 40 ppm (*)): 100* %; Test C disease control rating (Septoria tritici; 40 ppm (*)): 93* %; Test D disease control rating (Septoria nodorum; 40 ppm (*)): 100* %; Test E disease control rating (Botrytis cinerea; 40 ppm (*)): 0* %
COC(=O)NCc1cc(-c2ccn(-c3ccc(Br)cc3C#N)n2)ccc1C [Cmpd 111]	94%	100%	93%	100%	0%						
COC(=O)NCc1cc(-n2ncc(-c3ccc(OC)cc3OC)[n+]2[O-])ccc1C [Compound 4]						99%	100%	99%	100%	69%	
COC(=O)NCc1cc(-n2ncc(-c3ccc(OC)cc3C)n2)ccc1C [Compound 8, methyl N-[[5-[4-(4-methoxy-2-methylphenyl)-2H-1,2,3-triazol-2-yl]-2-methylphenyl]methyl]carbamate]						100%	100%	100%	100%	90%	
COC(=O)NCc1cc(-c2ccn(-c3ccc(OC)cc3Cl)n2)ccc1C [Compound 20, methyl N-[[5-[1-(2-chloro-4-methoxyphenyl)-1H-pyrazol-3-yl]-2-methylphenyl]-methyl]carbamate]						100%	100%	100%	100%	0%	
COC(=O)NCc1cc(-c2ccn(-c3ccc(Cl)cc3OC)n2)ccc1C [Compound 28, methyl N-[[5-[1-(4-chloro-2-methoxyphenyl)-1H-pyrazol-3-yl]-2-methylphenyl]-methyl]carbamate]						100%	100%	100%	100%	57%	
